Measurements: patent publication US20110105472A1, “Diaminopyrimidines as crop protection agents” (Bayer CropScience AG, priority 2008, published 2011)

assay: logP by HPLC on reversed-phase columns (C 18), method [a], acidic range pH 2.3; format: physicochemical; conditions: pH 2.3

| Compound | log p | chromatographic logP |
| --- | --- | --- |
| Cl.Clc1cccc(Nc2ncc(Cl)c(NC3CCC3)n2)c1 [Compound 2-1] | 3.09^[a] | – |
| CCCCNS(=O)(=O)c1ccc(Nc2ncc(Cl)c(NC3CCC3)n2)cc1 [compound 26] | 2.91[a] | – |
| CC(C)c1ccc(Nc2ncc(Cl)c(NC3CCC3)n2)cc1.Cl [Compound 2-5] | 2.74^[a] | – |
| Clc1ncc(Br)c(NC2CCC2)n1 [Compound V-2, 5-Bromo-2-chloro-N-cyclobutylpyrimidine-4-amine] | – | 2.87 |

assay: logP by LC-MS, method [b], acidic range pH 2.7; format: physicochemical; conditions: pH 2.7

| Compound | log p |
| --- | --- |
| FC(F)(F)Sc1ccc(Nc2ncc(Br)c(NC3CCC3)n2)cc1 [Compound 71] | 4.51[b] |
| CC(C)c1cccc(Nc2ncc(Cl)c(NC3CCC3)n2)c1 [Compound 243] | 3.1[b] |
| Clc1cnc(Nc2ccc(NC3CC3)cc2)nc1NC1CCC1 [compound 207] | 0.71[b] |
| O=C(Nc1cccc(Nc2ncc(Br)c(NC3CCC3)n2)c1)c1ccccc1 [compound 168] | 2.46[b] |
| CC(=O)N1CCc2cc(Nc3ncc(Br)c(NC4CCC4)n3)ccc21 [Compound 17] | 1.68[b] |
| COc1cc(Nc2ncc(Br)c(NC3CCC3)n2)ccc1NS(C)(=O)=O [Compound 84] | 1.75[b] |
| CC(C)c1cccc(Nc2ncc(C(F)(F)F)c(NC3CCC3)n2)c1 [Compound 225] | 4.61[b] |
| CCNC(=O)c1cccc(Nc2ncc(Br)c(NC3CCC3)n2)c1 [Compound 190] | 1.73[b] |
| CCOC(=O)Nc1ccc(Nc2ncc(Br)c(NC3CCC3)n2)cc1O [compound 151] | 1.8[b] |
| FC(F)Oc1ccc(Nc2ncc(Br)c(NC3CCC3)n2)cc1 [Compound 75] | 2.5[b] |
| CSc1ccc(Nc2ncc(Cl)c(NC3CCC3)n2)cc1Cl [compound 115] | 3.22[b] |
| CC(=O)c1cccc(Nc2ncc(Br)c(NC3CCC3)n2)c1 [Compound 32] | 2.28[b] |
| COc1cc(Nc2ncc(Br)c(NC3CCC3)n2)ccc1NC(C)=O [Compound 90] | 1.59[b] |
| CC(=O)CCc1cccc(Nc2ncc(Cl)c(NC3CCC3)n2)c1 [Compound 256] | 1.98[b] |
| FC(F)C(F)(F)Oc1cccc(Nc2ncc(Br)c(NC3CCC3)n2)c1 [compound 170] | 3.37[b] |
| Brc1cnc(Nc2cccc(-c3nccs3)c2)nc1NC1CCC1 [Compound 33] | 2.8[b] |
| CC(C)(CF)C(=O)Nc1cccc(Nc2ncc(Cl)c(NC3CCC3)n2)c1 [Compound 141] | 1.97[b] |
| O=CNc1cccc(Nc2ncc(Br)c(NC3CCC3)n2)c1 [Compound 154] | 1.58[b] |
| O=C(Nc1ccc(Nc2ncc(Br)c(NC3CCC3)n2)cc1)OCCCl [compound 43] | 2.06[b] |
| OCc1cccc(Nc2ncc(Br)c(NC3CCC3)n2)c1 [Compound 185] | 1.44[b] |
| O=C1CCc2cc(Nc3ncc(Br)c(NC4CCC4)n3)ccc2N1 [Compound 4] | 1.49[b] |
| O=C1NC(=O)C(c2ccc(Nc3ncc(Cl)c(NC4CCC4)n3)cc2)N1 (centres unmarked) [compound 134] | 1.33[b] |

| Compound | log p |
| --- | --- |
| N#CCc1cccc(Nc2ncc(Cl)c(NC3CCC3)n2)c1 [Compound 242] | 1.97[b] |
| Fc1cc(C(F)(F)F)ccc1Nc1ncc(Br)c(NC2CCC2)n1 [Compound 63] | 3.9[b] |
| CNC(=O)c1ccc(Nc2ncc(Cl)c(NC3CCC3)n2)cc1 [Compound 126] | 1.5[b] |
| Fc1ccc(Nc2ncc(Br)c(NC3CCC3)n2)cc1 [Compound 62] | 2.6[b] |
| CC(=O)c1ccc(Nc2ncc(Cl)c(NC3CCC3)n2)cc1 [compound 131] | 2.26[b] |
| CC(C)c1ccc(Nc2ncc(Br)c(NC3CCC3)n2)cc1 [Compound 40] | 3.13[b] |
| Oc1ccc(Nc2ncc(Br)c(NC3CCC3)n2)cc1 [compound 37] | 1.27[b] |
| CS(=O)(=O)Nc1ccc(Nc2ncc(Br)c(NC3CCC3)n2)cc1 [Compound 85] | 1.61[b] |
| O=c1[nH]c2ccc(Nc3ncc(Cl)c(NC4CCC4)n3)cc2o1 [compound 8] | 1.55[b] |
| O=C(c1ccc(Nc2ncc(Br)c(NC3CCC3)n2)cc1)C(F)(F)F [Compound 197] | 4.41[b] |
| CC(=O)N(C)c1ccc(Nc2ncc(Br)c(NC3CCC3)n2)cc1 [Compound 94] | 1.73[b] |
| O=C1NC(=O)C(c2ccc(Nc3ncc(Br)c(NC4CCC4)n3)cc2)N1 (centres unmarked) [Compound 187] | 1.24[b] |
| CCOC(=O)Nc1cccc(Nc2ncc(Cl)c(NC3CCC3)n2)c1 [Compound 137] | 1.94[b] |
| COCc1cccc(Nc2ncc(Br)c(NC3CCC3)n2)c1 [Compound 39] | 2.2[b] |
| OC(c1cccc(Nc2ncc(Cl)c(NC3CCC3)n2)c1)C(F)(F)F (centres unmarked) [Compound 218] | 2.04[b] |
| FC(F)(F)Oc1ccc(Nc2ncc(Br)c(NC3CCC3)n2)cc1Cl [Compound 81] | 4.72[b] |
| COCc1cccc(Nc2ncc(Cl)c(NC3CCC3)n2)c1 [Compound 42] | 2.05[b] |
| N#Cc1cnc(Nc2ccccc2)nc1NC1CCC1 [compound 29] | 2.92[b] |
| COc1cc(Nc2ncc(Cl)c(NC3CCC3)n2)ccc1NC(C)=O [Compound 108] | 1.55[b] |
| CN1CCN(c2cccc(Nc3ncc(Cl)c(NC4CCC4)n3)c2)C1=O [Compound 237] | 1.66[b] |
| Oc1ccc(Nc2ncc(Br)c(NC3CCC3)n2)cc1F [Compound 184] | 1.5[b] |
| Brc1cnc(Nc2ccc3[nH]ccc3c2)nc1NC1CCC1 [Compound 1] | 1.59[b] |

| Compound | log p |
| --- | --- |
| Cc1cc(C)c(C)c(Nc2ncc(Br)c(NC3CCC3)n2)c1 [Compound 61] | 2.57[b] |
| CC(C)(C)C(=O)Nc1cccc(Nc2ncc(Br)c(NC3CCC3)n2)c1 [Compound 99] | 2.11[b] |
| O=C1Cc2cc(Nc3ncc(Cl)c(NC4CCC4)n3)ccc2N1 [compound 7] | 1.33[b] |
| CS(=O)(=O)c1cccc(Nc2ncc(Br)c(NC3CCC3)n2)c1 [Compound 265] | 2.07[b] |
| C=C(C)C(=O)Nc1cccc(Nc2ncc(Br)c(NC3CCC3)n2)c1 [Compound 98] | 1.9[b] |
| CC(=O)Nc1ccc(Nc2ncc(Cl)c(NC3CCC3)n2)cc1 [Compound 117] | 1.43[b] |
| CC(=O)c1ccc(Nc2ncc(Br)c(NC3CCC3)n2)cc1 [compound 145] | 2.65[b] |
| CN(C)C(=O)c1cccc(Nc2ncc(Cl)c(NC3CCC3)n2)c1 [Compound 247] | 1.57[b] |
| CS(=O)(=O)c1cccc(Nc2ncc(C(F)(F)F)c(NC3CCC3)n2)c1 [Compound 264] | 2.76[b] |
| CNC(=O)Oc1cccc(Nc2ncc(Br)c(NC3CCC3)n2)c1 [Compound 196] | 1.75[b] |
| Cc1nc2cc(Nc3ncc(Br)c(NC4CCC4)n3)ccc2s1 [Compound 10] | 2.11[b] |
| O=C1NC(=O)c2cc(Nc3ncc(Br)c(NC4CCC4)n3)ccc21 [compound 22] | 2.25[b] |
| CCN(C(C)=O)c1ccc(Nc2ncc(Cl)c(NC3CCC3)n2)cc1 [Compound 119] | 1.83[b] |
| COc1cccc(Nc2ncc(C(F)(F)F)c(NC3CCC3)n2)c1 [Compound 238] | 3.48[b] |
| COC(=O)c1ccc(Nc2ncc(Br)c(NC3CCC3)n2)cc1 [compound 158] | 2.84[b] |
| COc1cc(Nc2ncc(Br)c(NC3CCC3)n2)ccc1F [Compound 31] | 2.41[b] |
| O=C1CCCCN1c1cccc(Nc2ncc(Cl)c(NC3CCC3)n2)c1 [Compound 204] | 1.66[b] |
| O=C(c1ccc(Nc2ncc(C(F)(F)F)c(NC3CCC3)n2)cc1)N1CCCCC1 [Compound 223] | 3.31[b] |
| Oc1ccc(Nc2ncc(Br)c(NC3CCC3)n2)c(F)c1 [Compound 80] | 1.55[b] |
| O=C(c1ccc(Nc2ncc(Cl)c(NC3CCC3)n2)cc1)N1CCCCC1 [Compound 203] | 2.27[b] |
| CCOC(=O)Nc1cccc(Nc2ncc(Br)c(NC3CCC3)n2)c1 [Compound 105] | 2.04[b] |
| N#CCc1cccc(Nc2ncc(C(F)(F)F)c(NC3CCC3)n2)c1 [Compound 226] | 3.01[b] |

| Compound | log p |
| --- | --- |
| C=C(C)C(=O)Nc1cccc(Nc2ncc(Cl)c(NC3CCC3)n2)c1 [compound 124] | 1.8[b] |
| CCN(C)C(=O)c1ccc(Nc2ncc(Cl)c(NC3CCC3)n2)cc1 [Compound 246] | 1.85[b] |
| CN1C(=O)COc2ccc(Nc3ncc(Br)c(NC4CCC4)n3)cc21 [Compound 13] | 1.83[b] |
| CC(C)(CF)C(=O)Nc1ccc(Nc2ncc(Br)c(NC3CCC3)n2)cc1 [Compound 171] | 1.99[b] |
| CSc1ccc(Nc2ncc(Br)c(NC3CCC3)n2)cc1Cl [Compound 73] | 3.5[b] |
| CC1(C(=O)Nc2cccc(Nc3ncc(Cl)c(NC4CCC4)n3)c2)CC1 [Compound 140] | 1.92[b] |
| FC(F)C(F)(F)Oc1ccc(Nc2ncc(Br)c(NC3CCC3)n2)cc1 [compound 159] | 3.1[b] |
| COC(=O)Nc1cccc(Nc2ncc(Br)c(NC3CCC3)n2)c1 [Compound 106] | 1.83[b] |
| O=C1COCCN1c1cccc(Nc2ncc(Br)c(NC3CCC3)n2)c1 [Compound 210] | 1.53[b] |
| CC1(C(=O)Nc2ccc(Nc3ncc(Br)c(NC4CCC4)n3)cc2)CC1 [compound 189] | 2[b] |
| O=S1(=O)Cc2ccc(Nc3ncc(Br)c(NC4CCC4)n3)cc2C1 [compound 20] | 1.78[b] |
| CC(=O)c1cc(Nc2ncc(Br)c(NC3CCC3)n2)ccc1O [Compound 177] | 2.09[b] |
| CC(C)(C)OC(=O)Nc1ccc(Nc2ncc(Br)c(NC3CCC3)n2)cc1 [Compound 162] | 2.36[b] |
| CCOC(=O)Nc1ccc(Nc2ncc(Br)c(NC3CCC3)n2)cc1 [Compound 195] | 1.9[b] |
| O=C1CCCN1c1ccc(Nc2ncc(Br)c(NC3CCC3)n2)cc1 [Compound 174] | 1.72[b] |
| CC1(C(=O)Nc2ccc(Nc3ncc(Cl)c(NC4CCC4)n3)cc2)CC1 [compound 122] | 1.87[b] |
| O=C(Nc1ccc(Nc2ncc(Br)c(NC3CCC3)n2)cc1)C(F)(F)F [Compound 95] | 2.21[b] |
| CCOc1ccc(Nc2ncc(Br)c(NC3CCC3)n2)cc1 [Compound 35] | 2.17[b] |
| CC(=O)N(c1ccc(Nc2ncc(Br)c(NC3CCC3)n2)cc1)C1CCCCC1 [compound 163] | 2.7[b] |
